Source: paper PMC10588032 (Journal of the American Chemical Society, 2023)
*1 amine or outer side, *2 acyl side, *3 side chain or, on linkers, in order; H or OH if unused. Where a SMILES comes first, the peptide text is derived from it. [ ]: non-standard residue; d: D form. X1 = CC(C)C[C@@H](CCC(=O)[*:2])N[*:1]; β3hN = NC(=O)C[C@H](N)CC(=O)O

What was measured:
PTHR1 [1] = assay: PTHR1 cAMP washout assay; assay type: cell-based; conditions: 10 nM agonist for 20 min, then PTHR1 antagonist PTH(7-34) introduced
PTHR1 [2] = target: T1, PTHR1 (Homo sapiens, UniProt Q03431); assay: PTHR1 activation via cAMP production; assay type: cell-based
T1 sequence (Q03431 27-593): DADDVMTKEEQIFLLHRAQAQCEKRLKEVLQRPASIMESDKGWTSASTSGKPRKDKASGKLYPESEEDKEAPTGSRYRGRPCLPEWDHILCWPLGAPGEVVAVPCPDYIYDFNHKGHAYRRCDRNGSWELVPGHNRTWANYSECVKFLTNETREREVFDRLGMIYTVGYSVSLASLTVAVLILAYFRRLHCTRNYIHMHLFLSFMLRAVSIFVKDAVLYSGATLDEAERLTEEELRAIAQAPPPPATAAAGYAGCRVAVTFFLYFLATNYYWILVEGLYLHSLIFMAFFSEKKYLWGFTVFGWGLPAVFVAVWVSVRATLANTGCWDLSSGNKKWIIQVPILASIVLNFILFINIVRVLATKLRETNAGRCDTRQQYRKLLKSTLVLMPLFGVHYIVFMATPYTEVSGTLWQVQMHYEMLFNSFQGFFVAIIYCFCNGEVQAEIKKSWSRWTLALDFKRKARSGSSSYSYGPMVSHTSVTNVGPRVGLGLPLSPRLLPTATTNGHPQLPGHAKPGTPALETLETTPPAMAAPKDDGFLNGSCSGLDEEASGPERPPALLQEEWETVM

PTHR2 = PTHR2 (Homo sapiens, UniProt P49190); assay: PTHR2 activation via cAMP production; assay type: cell-based
PTHR1 [3] = target: T1, PTHR1; assay: β-arrestin-2 recruitment to the PTHR1; assay type: cell-based
PTHR1 [4] = target: T1, PTHR1; assay: β-arrestin-1 recruitment to the PTHR1; assay type: cell-based
NLuc-PTHR1 [5] = target: T2, NLuc-PTHR1 (Homo sapiens, UniProt Q03431); assay: NLuc-PTHR1 competition binding
T2 sequence (Q03431 27-593): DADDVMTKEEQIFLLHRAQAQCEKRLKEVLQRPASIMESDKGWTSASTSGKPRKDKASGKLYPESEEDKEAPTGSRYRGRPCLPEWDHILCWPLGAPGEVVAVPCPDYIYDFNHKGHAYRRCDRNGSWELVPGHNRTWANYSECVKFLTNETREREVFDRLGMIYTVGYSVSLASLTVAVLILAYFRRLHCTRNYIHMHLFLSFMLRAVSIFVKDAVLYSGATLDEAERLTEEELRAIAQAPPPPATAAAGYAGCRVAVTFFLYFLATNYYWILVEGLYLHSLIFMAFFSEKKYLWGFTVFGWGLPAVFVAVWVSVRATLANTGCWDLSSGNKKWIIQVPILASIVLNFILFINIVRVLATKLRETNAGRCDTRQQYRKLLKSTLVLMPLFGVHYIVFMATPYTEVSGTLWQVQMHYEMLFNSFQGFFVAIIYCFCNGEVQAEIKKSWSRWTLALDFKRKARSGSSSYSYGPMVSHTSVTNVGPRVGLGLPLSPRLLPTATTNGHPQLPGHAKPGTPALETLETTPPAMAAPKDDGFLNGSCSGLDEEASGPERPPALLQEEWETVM

NLuc-PTHR1 [6] = target: NLuc-PTHR1 (UniProt Q03431); assay: FRET or BRET
NLuc-PTHR1 [7] = target: NLuc-PTHR1 (UniProt Q03431)
PTHR1-RLuc8 = target: T3, PTHR1-RLuc8 (UniProt Q03431 27-593); assay: FRET or BRET
T3 sequence (looked up): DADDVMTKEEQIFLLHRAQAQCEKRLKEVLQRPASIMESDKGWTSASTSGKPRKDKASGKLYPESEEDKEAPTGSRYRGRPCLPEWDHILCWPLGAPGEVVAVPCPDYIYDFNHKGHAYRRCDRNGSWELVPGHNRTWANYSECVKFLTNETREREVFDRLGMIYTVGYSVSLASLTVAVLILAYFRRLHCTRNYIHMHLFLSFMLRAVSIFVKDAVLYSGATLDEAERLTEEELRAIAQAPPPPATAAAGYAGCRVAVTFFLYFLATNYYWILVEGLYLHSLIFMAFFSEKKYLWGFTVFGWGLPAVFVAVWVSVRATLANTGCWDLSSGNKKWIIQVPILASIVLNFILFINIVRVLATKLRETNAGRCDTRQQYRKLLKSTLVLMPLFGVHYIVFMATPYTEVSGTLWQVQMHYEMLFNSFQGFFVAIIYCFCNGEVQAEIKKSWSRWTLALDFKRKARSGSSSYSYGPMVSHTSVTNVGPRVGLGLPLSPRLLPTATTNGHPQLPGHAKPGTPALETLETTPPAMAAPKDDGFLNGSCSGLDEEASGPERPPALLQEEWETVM

Sequence of PTHR2 (P49190 25-550, species assumed): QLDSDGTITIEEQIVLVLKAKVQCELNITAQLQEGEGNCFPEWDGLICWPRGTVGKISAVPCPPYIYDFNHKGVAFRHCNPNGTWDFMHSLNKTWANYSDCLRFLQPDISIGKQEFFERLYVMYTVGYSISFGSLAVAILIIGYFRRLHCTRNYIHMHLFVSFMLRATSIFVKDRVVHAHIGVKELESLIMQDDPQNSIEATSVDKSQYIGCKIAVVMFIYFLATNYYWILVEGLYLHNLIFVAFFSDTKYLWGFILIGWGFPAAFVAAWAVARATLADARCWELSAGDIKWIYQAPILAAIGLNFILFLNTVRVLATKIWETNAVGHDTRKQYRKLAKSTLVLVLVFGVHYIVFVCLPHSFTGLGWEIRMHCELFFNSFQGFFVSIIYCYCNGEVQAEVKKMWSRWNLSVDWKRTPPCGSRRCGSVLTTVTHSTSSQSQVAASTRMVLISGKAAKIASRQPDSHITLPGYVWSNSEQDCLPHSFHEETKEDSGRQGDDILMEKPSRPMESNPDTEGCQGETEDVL

CC[C@H](C)[C@H](NC(=O)[C@H](CCC(=O)O)NC(=O)[C@H](CO)NC(=O)[C@@H](NC(=O)[C@@H](N)CO)C(C)C)C(=O)N[C@@H](CCC(N)=O)C(=O)N[C@@H](CC(C)C)C(=O)N[C@@H](CCSC)C(=O)N[C@@H](Cc1c[nH]cn1)C(=O)N[C@@H](CC(N)=O)CC(=O)N[C@H](CCC(=O)N[C@@H](CCCCN)C(=O)N[C@@H](Cc1c[nH]cn1)C(=O)N[C@@H](CC(C)C)C(=O)N[C@@H](CC(N)=O)C(=O)N[C@@H](CO)C(=O)N[C@@H](CCSC)C(=O)N[C@@H](CCC(=O)O)C(=O)N[C@@H](CCCNC(=N)N)C(=O)N[C@H](C(=O)N[C@@H](CCC(=O)O)C(=O)N[C@@H](Cc1c[nH]c2ccccc12)C(=O)N[C@@H](CC(C)C)C(=O)N[C@@H](CCCNC(=N)N)C(=O)N[C@@H](CCCCN)C(=O)N[C@@H](CCCCN)C(=O)N[C@@H](CC(C)C)C(=O)N[C@@H](CCC(N)=O)C(=O)N[C@@H](CC(=O)O)C(=O)N[C@H](C(=O)N[C@@H](Cc1c[nH]cn1)C(=O)N[C@@H](CC(N)=O)C(=O)N[C@@H](Cc1ccccc1)C(N)=O)C(C)C)C(C)C)CC(C)C [Peptide 1] (H-SVSEIQLMH[β3hN][X1]KHLNSMERVEWLRKKLQDVHNF-NH2; N-terminus assumed)
AUC of post-washout PTHR1 cAMP, lower compared to PTH(1-34) (PTHR1 [1]): ~ 40%
EC50 (PTHR1 [2]): 2.51 nM
PTHR1 cAMP Production % Max (PTHR1 [2]; maximal response normalized against PTH(1-34), 4 independent experiments, ± SEM): 116 ± 6%
EC50 (PTHR2): 31.6 nM
PTHR2 cAMP Production % Max (PTHR2; maximal response normalized against PTH(1-34), ≥4 independent experiments, ± SEM): 76 ± 3%
EC50 (PTHR1 [3]): 100 nM
PTHR1 β-arrestin-2 Recruitment % Max (PTHR1 [3]; normalized against PTH(1-34), ≥3 independent experiments, ± SEM): 21 ± 4%
EC50 (PTHR1 [4]): 100 nM
PTHR1 β-arrestin-1 Recruitment % Max (PTHR1 [4]; normalized against PTH(1-34), ≥4 independent experiments, ± SEM): 27 ± 3%
IC50 (NLuc-PTHR1 [5]): 126 nM

PTH(1-34) (peptide)
IC50 (NLuc-PTHR1 [6]): 22 nM
PTHR1 cAMP production, % Max (NLuc-PTHR1 [7]): 102%

B1: β-arrestin-1-Venus (natural protein, UniProt P49407 1-418, looked up)
chain: MGDKGTRVFKKASPNGKLTVYLGKRDFVDHIDLVDPVDGVVLVDPEYLKERRVYVTLTCAFRYGREDLDVLGLTFRKDLFVANVQSFPPAPEDKKPLTRLQERLIKKLGEHAYPFTFEIPPNLPCSVTLQPGPEDTGKACGVDYEVKAFCAENLEEKIHKRNSVRLVIRKVQYAPERPGPQPTAETTRQFLMSDKPLHLEASLDKEIYYHGEPISVNVHVTNNTNKTVKKIKISVRQYADICLFNTAQYKCPVAMEEADDTVAPSSTFCKVYTLTPFLANNREKRGLALDGKLKHEDTNLASSTLLREGANREILGIIVSYKVKVKLVVSRGGLLGDLASSDVAVELPFTLMHPKPKEEPPHREVPENETPVDTNLIELDTNDDDIVFEDFARQRLKGMKDDKEEEEDGTGSPQLNNR
EC50 of PTH(1-34) for recruitment (PTHR1-RLuc8): 7.2 nM
EC50 of peptide 1 for recruitment (PTHR1-RLuc8): 100 nM
EC50 of peptide 2 for recruitment (PTHR1-RLuc8): 190 nM
